Measurements from patent US20050142229A1, “Pharmaceutical activity and manufacturing method of the four-plant-derived coronary blood flow enhancing agent” (priority 2003, published 2005).

System: isolated guinea pig heart
Assay: Effect on coronary blood flow of the isolated guinea pig heart (perfusion with KH solution)
Protocol: 1. Effect on coronary blood flow of the isolated guinea pig heart. • (1) The perfusion circuit was maintained at 37±1° C. and the perfusate in the condensing tube was thermostatic. The upper end of the condensing tube was connected with reservoir and the lower with aortic cannula via rubber tube. The perfusate level in reservoir A was constant by controlling the height of liquid below the air inlet in reservoir B. The perfusate level was about 50 cm above the aortic root. Constant oxygen was gassed into reservoir A to make the KH solution saturated with oxygen. When full of the oxygenated LH solution, the perfusion tube was clamped. • (2) On […], weighing 300 g, was stunned and exsanguinated via carotid. The chest and pericardium were opened, and then the heart was suspended in the pericardial cradle. The heart was exercised and immediately put into the cold KH solution (4° C.). The remaining blood was pressed out gently. After aortic cannulation at the top of the ascending aorta, the clamp was opened and the coronary venous effluent was present (route: coronary artery→myocardium→right atrium→vena cava and pulmonary artery). The pressure transducer was connected with the apex of heart to record the graphs and count the heart beat. The coronary venous effluent dripped into the measuring cup via a funnel. • (3) Coronary Blood Flow Measurement: The heart was allowed to recover for 10 minutes to stabilize coronary blood flow, heart rate, and heart beat amplitude. The per-minute flow volume was measured consecutively for 3 minutes. If the values were similar, the average was calculated for the normal coronary blood flow. […] The test sample and isoprenaline was injected into the aortic cannula respectively. The per-minute coronary blood flow, heart rate and heart beat duration were measured during 1˜10 min after administration, the maximum and minimum were picked out to caculate the extreme difference. Note: the second administration should not be given until the coronary blood flow returned to normal. Five replicate experiments were conducted to ensure the reproductivity.

[1] = isolated heart, 0.25 μg injected into aortic cannula, X ± SD

## CC(C)NCC(O)c1ccc(O)c(O)c1 (stereo not drawn) [Isoprenaline]
Isolated guinea pig heart
  coronary blood flow (result in words): increased
  heart rate (result in words): increased
  myocardial contraction (result in words): increased
[1]
  Coronary Blood Flow, After administration: 20 ± 4 mL/min
  Heart Rate, After administration: 198 ± 21 time/min
  Heart beat duration, After administration: 62 ± 10 min
